Assay results published in patent US8952024B2, “Herbicidal pyrimidone derivatives” (E I du Pont de Nemours and Company, priority 2009, dated 2015).

Key:
Type in all cases: in vivo
[1] = system: barnyardgrass (Echinochloa crus-galli); test: Test A pre-/postemergence plant response
Summary of the method: (§1)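 Injury was scored visually after roughly ten days against untreated controls, 0 = no effect, 100 = complete control. Test chemicals in a surfactant-containing non-phytotoxic solvent were sprayed either onto soil preemergence or onto one- to two-leaf, 2–10 cm plants postemergence.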

[2] = system: corn (Zea mays); test: Test A pre-/postemergence plant response
Summary of the method: as §1

[3] = system: giant foxtail (Setaria faberii); test: Test A pre-/postemergence plant response
Summary of the method: as §1

[4] = system: large crabgrass (Digitaria sanguinalis); test: Test A pre-/postemergence plant response
Summary of the method: as §1

[5] = system: morningglory (Ipomoea spp.); test: Test A pre-/postemergence plant response
Summary of the method: as §1

[6] = system: pigweed (Amaranthus retroflexus); test: Test A pre-/postemergence plant response
Summary of the method: as §1

[7] = system: velvetleaf (Abutilon theophrasti); test: Test A pre-/postemergence plant response
Summary of the method: as §1

[8] = system: wheat (Triticum aestivum); test: Test A pre-/postemergence plant response
Summary of the method: as §1

[9] = system: canarygrass (Phalaris minor); test: Test B postemergence plant response; conditions: Postemergence
Summary of the method: (§2)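 Visual ratings from 0 (no effect) to 100 (complete control), made against controls 13–15 days after treatment, kept in a greenhouse. Compounds were applied postemergence to potted plants at the 1- to 4-leaf stage (2–18 cm).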

[10] = system: chickweed (Stellaria media); test: Test B postemergence plant response; conditions: Postemergence
Summary of the method: as §2

[11] = system: windgrass (Apera spica-venti); test: Test B postemergence plant response; conditions: Postemergence
Summary of the method: as §2

[12] = system: ducksalad (Heteranthera limosa); test: Test B flooded paddy test; conditions: for Plant response rating, Flood, Ducksalad: 250 g ai/ha, flooded paddy test, visual rating on 0 to 100 scale (0 no effect, 100 complete control) after 13 to 15 days; for Plant response rating, Ducksalad: Flood (flooded paddy test), 13 to 15 days
Summary of the method: (§3)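 Flooded-pot test: water raised to 3 cm above soil when treating, compound put in the water, level unchanged thereafter. Plants were at 2 leaves. Readout after 13 to 15 days, visual, relative to controls; 0 signifies no effect and 100 complete control.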

[13] = system: rice (Oryza sativa); test: Test B flooded paddy test; conditions: for Plant response rating, Flood, Rice: 250 g ai/ha, flooded paddy test, visual rating on 0 to 100 scale (0 no effect, 100 complete control) after 13 to 15 days; for Plant response rating, Rice: Flood (flooded paddy test), 13 to 15 days
Summary of the method: as §3

[14] = Postemergence, 125 g ai/ha, visual injury, 0 to 100 scale (0 no effect, 100 complete control), approx. ten days
[15] = Postemergence, 500 g ai/ha, 0 to 100 scale, 0 = no effect, 100 = complete control, approx. ten days
[16] = Preemergence, 125 g ai/ha, 0 to 100 scale, 0 = no effect, 100 = complete control
[17] = Preemergence, 500 g ai/ha, visual injury, 0 to 100 scale (0 no effect, 100 complete control), approx. ten days
[18] = 31 g ai/ha, scale 0 to 100 (0 no effect, 100 complete control)
[19] = 62 g ai/ha, scale 0 (no effect) to 100 (complete control), 13 to 15 days
[20] = 125 g ai/ha, visual rating after 13 to 15 days, scale 0 (no effect) to 100 (complete control)
[21] = 31 g ai/ha, scale of 0 to 100 where 0 is no effect and 100 is complete control
[22] = 62 g ai/ha, scale 0 to 100, 0 is no effect, 100 is complete control
[23] = 125 g ai/ha, scale 0 to 100, 0 is no effect, 100 is complete control
[24] = Postemergence, 125 g ai/ha, 0 to 100 scale where 0 is no effect and 100 is complete control
[25] = Postemergence, 500 g ai/ha, visual injury, 0 to 100 scale (0 no effect, 100 complete control), approx. ten days
[26] = Preemergence, 500 g ai/ha, 0 to 100 scale, 0 = no effect, 100 = complete control
[27] = 31 g ai/ha, 0 to 100 scale (0 no effect, 100 complete control)
[28] = 125 g ai/ha, scale 0 to 100 (0 no effect, 100 complete control)
[29] = 250 g ai/ha, scale 0 to 100 (0 no effect, 100 complete control), 13 to 15 days
[30] = 62 g ai/ha, scale of 0 to 100 where 0 is no effect and 100 is complete control
[31] = Flood, 31 g ai/ha, scale 0 to 100 (0 no effect, 100 complete control)

O=C1CCCC(O)=C1C(=O)c1cnc(-c2ccccc2)n(-c2cccc(Br)c2)c1=O [Compound 38]
Barnyardgrass plant response rating [1, 14]: 60 | Plant response rating, Barnyardgrass [1, 15]: 90 | Plant response rating, Barnyardgrass [1, 16]: 10 | Plant response rating, Barnyardgrass [1, 17]: 90 | Corn plant response rating [2, 14]: 0 | Plant response rating, Corn [2, 15]: 60 | Plant response rating, Corn [2, 16]: 0 | Plant response rating, Corn [2, 17]: 30 | Foxtail, Giant plant response rating [3, 14]: 50 | Plant response rating, Foxtail, Giant [3, 15]: 90 | Plant response rating, Foxtail, Giant [3, 16]: 10 | Plant response rating, Foxtail, Giant [3, 17]: 80 | Crabgrass, Large plant response rating [4, 14]: 60 | Plant response rating, Crabgrass, Large [4, 15]: 100 | Plant response rating, Crabgrass, Large [4, 16]: 30 | Plant response rating, Crabgrass, Large [4, 17]: 100 | Morningglory plant response rating [5, 14]: 100 | Plant response rating, Morningglory [5, 15]: 100 | Plant response rating, Morningglory [5, 16]: 0 | Plant response rating, Morningglory [5, 17]: 70 | Pigweed plant response rating [6, 14]: 100 | Plant response rating, Pigweed [6, 15]: 100 | Plant response rating, Pigweed [6, 16]: 50 | Plant response rating, Pigweed [6, 17]: 100 | Velvetleaf plant response rating [7, 14]: 100 | Plant response rating, Velvetleaf [7, 15]: 100 | Plant response rating, Velvetleaf [7, 16]: 70 | Plant response rating, Velvetleaf [7, 17]: 100 | Wheat plant response rating [8, 14]: 0 | Plant response rating, Wheat [8, 15]: 40 | Plant response rating, Wheat [8, 16]: 0 | Plant response rating, Wheat [8, 17]: 20 | Plant response rating, Canarygrass [9, 18]: 10 | Plant response rating, Canarygrass [9, 19]: 10 | Plant response rating, Canarygrass [9, 20]: 10 | Canarygrass plant response rating ([9]; 250 g ai/ha, scale 0 to 100): 45 | Plant response rating, Chickweed [10, 18]: 85 | Plant response rating, Chickweed [10, 19]: 90 | Plant response rating, Chickweed [10, 20]: 100 | Chickweed plant response rating ([10]; 250 g ai/ha, scale 0 to 100): 100 | Plant response rating, Windgrass [11, 19]: 80 | Plant response rating, Windgrass [11, 20]: 85 | Plant response rating, Flood, Ducksalad [12]: 65 | Plant response rating, Ducksalad [12, 21]: 0 | Plant response rating, Ducksalad [12, 22]: 20 | Plant response rating, Ducksalad [12, 23]: 60 | Plant response rating, Flood, Rice [13]: 0 | Plant response rating, Rice [13, 21]: 0 | Plant response rating, Rice [13, 22]: 0 | Plant response rating, Rice [13, 23]: 0

CCCn1c(-c2cccc(Cl)c2)ncc(C(=O)C2=C(O)CCCC2=O)c1=O [Compound 190]
Plant response rating, Barnyardgrass [1, 24]: 90 | Barnyardgrass plant response rating [1, 25]: 100 | Plant response rating, Barnyardgrass [1, 16]: 10 | Plant response rating, Barnyardgrass [1, 26]: 100 | Plant response rating, Corn [2, 24]: 0 | Corn plant response rating [2, 25]: 0 | Plant response rating, Corn [2, 16]: 0 | Plant response rating, Corn [2, 26]: 0 | Plant response rating, Foxtail, Giant [3, 24]: 80 | Foxtail, Giant plant response rating [3, 25]: 90 | Plant response rating, Foxtail, Giant [3, 16]: 60 | Plant response rating, Foxtail, Giant [3, 26]: 90 | Plant response rating, Crabgrass, Large [4, 24]: 90 | Crabgrass, Large plant response rating [4, 25]: 90 | Plant response rating, Crabgrass, Large [4, 16]: 60 | Plant response rating, Crabgrass, Large [4, 26]: 90 | Plant response rating, Morningglory [5, 24]: 100 | Morningglory plant response rating [5, 25]: 100 | Plant response rating, Morningglory [5, 26]: 70 | Plant response rating, Pigweed [6, 24]: 100 | Pigweed plant response rating [6, 25]: 100 | Plant response rating, Pigweed [6, 16]: 70 | Plant response rating, Pigweed [6, 26]: 100 | Plant response rating, Velvetleaf [7, 24]: 100 | Velvetleaf plant response rating [7, 25]: 100 | Plant response rating, Velvetleaf [7, 16]: 70 | Plant response rating, Velvetleaf [7, 26]: 100 | Plant response rating, Wheat [8, 24]: 0 | Wheat plant response rating [8, 25]: 0 | Plant response rating, Wheat [8, 16]: 0 | Plant response rating, Wheat [8, 26]: 0 | Plant response rating, Canarygrass [9, 27]: 0 | Plant response rating, Canarygrass [9, 28]: 25 | Plant response rating, Canarygrass [9, 29]: 55 | Plant response rating, Chickweed [10, 28]: 100 | Plant response rating, Chickweed [10, 29]: 100 | Plant response rating, Windgrass [11, 27]: 15 | Plant response rating, Windgrass [11, 28]: 65 | Plant response rating, Windgrass [11, 29]: 65 | Plant response rating, Flood, Ducksalad [12]: 100 | Plant response rating, Ducksalad [12, 30]: 20 | Plant response rating, Ducksalad [12, 23]: 40 | Ducksalad plant response rating [12, 31]: 20 | Plant response rating, Flood, Rice [13]: 15 | Plant response rating, Rice [13, 30]: 15 | Plant response rating, Rice [13, 23]: 15 | Rice plant response rating [13, 31]: 15
